Experimental data: paper PMC11345841, “Exploring 2-Sulfonylpyrimidine Warheads as Acrylamide Surrogates for Targeted Covalent Inhibition: A BTK Story” (Journal of Medicinal Chemistry, 2024)
Like-named read-outs stand apart in the source and are kept apart here.

Legend:
Assay in all cases: KINOMEscan ScanTK
Format in all cases: binding
ALK = molecular target: T1, ALK (Homo sapiens, UniProt Q9UM73)
T1 construct: purchased Eurofins DiscoverX KINOMEscan (scanTK)

SRMS = molecular target: T2, SRMS (Homo sapiens, UniProt Q9H3Y6); conditions: for remaining binding at 1 µM: SRMS
T2 construct: purchased Eurofins DiscoverX KINOMEscan (scanTK)
T2 sequence (Q9H3Y6 whole entry): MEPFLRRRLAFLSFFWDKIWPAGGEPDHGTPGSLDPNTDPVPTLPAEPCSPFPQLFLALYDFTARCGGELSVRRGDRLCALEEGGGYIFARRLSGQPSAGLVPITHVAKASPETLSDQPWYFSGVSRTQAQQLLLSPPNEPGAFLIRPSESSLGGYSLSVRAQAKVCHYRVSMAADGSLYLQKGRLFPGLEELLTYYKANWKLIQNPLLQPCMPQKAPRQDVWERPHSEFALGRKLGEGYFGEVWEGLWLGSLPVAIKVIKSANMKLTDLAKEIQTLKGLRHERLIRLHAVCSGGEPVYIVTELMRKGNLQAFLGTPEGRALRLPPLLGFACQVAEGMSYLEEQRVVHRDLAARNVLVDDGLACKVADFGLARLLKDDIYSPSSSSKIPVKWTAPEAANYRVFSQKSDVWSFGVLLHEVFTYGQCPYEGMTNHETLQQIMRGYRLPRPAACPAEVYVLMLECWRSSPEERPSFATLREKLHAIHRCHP

TRKC = molecular target: T3, TRKC (Homo sapiens, UniProt Q16288)
T3 construct: purchased Eurofins DiscoverX KINOMEscan (scanTK)
T3 sequence (Q16288 32-839): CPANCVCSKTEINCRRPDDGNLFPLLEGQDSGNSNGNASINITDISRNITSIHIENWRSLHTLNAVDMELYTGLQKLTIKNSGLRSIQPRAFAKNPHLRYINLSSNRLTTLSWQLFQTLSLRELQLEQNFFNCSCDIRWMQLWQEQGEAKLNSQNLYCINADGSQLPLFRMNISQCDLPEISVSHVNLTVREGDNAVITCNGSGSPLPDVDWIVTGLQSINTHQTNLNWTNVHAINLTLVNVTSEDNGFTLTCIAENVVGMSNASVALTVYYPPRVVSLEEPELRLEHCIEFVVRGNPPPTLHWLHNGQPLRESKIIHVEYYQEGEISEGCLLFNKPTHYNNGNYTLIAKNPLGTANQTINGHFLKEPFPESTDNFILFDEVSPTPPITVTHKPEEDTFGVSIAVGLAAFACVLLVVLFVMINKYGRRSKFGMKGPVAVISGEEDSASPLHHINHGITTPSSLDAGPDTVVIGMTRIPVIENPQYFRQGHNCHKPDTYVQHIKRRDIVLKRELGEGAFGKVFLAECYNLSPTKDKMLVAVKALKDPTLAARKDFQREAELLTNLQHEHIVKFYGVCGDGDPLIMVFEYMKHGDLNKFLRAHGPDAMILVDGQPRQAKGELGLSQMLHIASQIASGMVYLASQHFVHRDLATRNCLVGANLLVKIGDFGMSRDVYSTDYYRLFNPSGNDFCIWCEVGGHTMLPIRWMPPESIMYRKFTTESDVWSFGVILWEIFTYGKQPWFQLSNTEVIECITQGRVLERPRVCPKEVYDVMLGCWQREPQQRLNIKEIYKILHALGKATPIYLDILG

EPHB3 = molecular target: T4, EPHB3 (Homo sapiens, UniProt P54753)
T4 construct: purchased Eurofins DiscoverX KINOMEscan (scanTK)
T4 sequence (P54753 34-998): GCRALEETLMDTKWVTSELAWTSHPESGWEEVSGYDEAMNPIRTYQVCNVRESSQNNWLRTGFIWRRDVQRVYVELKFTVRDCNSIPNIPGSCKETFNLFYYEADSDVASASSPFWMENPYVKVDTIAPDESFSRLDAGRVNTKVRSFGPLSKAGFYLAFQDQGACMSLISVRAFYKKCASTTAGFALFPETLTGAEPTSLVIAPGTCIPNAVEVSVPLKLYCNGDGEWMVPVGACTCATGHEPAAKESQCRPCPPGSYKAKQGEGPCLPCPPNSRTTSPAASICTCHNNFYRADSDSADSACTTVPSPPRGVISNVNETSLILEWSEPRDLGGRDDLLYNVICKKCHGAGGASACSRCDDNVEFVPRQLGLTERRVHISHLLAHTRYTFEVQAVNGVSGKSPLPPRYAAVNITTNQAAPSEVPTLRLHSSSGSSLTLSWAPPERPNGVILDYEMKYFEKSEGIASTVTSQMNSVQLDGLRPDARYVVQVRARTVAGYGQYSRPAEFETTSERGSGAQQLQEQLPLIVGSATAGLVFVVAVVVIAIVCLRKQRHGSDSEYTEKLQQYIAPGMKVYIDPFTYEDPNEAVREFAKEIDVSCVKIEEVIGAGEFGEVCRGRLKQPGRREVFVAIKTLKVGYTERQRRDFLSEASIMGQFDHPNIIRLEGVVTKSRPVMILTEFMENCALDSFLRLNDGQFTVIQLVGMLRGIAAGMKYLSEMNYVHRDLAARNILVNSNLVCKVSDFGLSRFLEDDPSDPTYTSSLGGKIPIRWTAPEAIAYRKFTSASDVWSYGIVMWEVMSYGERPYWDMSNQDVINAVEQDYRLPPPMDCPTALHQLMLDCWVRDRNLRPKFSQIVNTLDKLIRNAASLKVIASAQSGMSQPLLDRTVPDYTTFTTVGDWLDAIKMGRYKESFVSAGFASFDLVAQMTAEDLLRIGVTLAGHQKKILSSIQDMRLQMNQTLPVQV

EGFR(L858R) = molecular target: T5, EGFR(L858R) (Homo sapiens, UniProt P00533, L858R)
T5 construct: purchased Eurofins DiscoverX KINOMEscan (scanTK)
T5 sequence (P00533 25-1210 L858R): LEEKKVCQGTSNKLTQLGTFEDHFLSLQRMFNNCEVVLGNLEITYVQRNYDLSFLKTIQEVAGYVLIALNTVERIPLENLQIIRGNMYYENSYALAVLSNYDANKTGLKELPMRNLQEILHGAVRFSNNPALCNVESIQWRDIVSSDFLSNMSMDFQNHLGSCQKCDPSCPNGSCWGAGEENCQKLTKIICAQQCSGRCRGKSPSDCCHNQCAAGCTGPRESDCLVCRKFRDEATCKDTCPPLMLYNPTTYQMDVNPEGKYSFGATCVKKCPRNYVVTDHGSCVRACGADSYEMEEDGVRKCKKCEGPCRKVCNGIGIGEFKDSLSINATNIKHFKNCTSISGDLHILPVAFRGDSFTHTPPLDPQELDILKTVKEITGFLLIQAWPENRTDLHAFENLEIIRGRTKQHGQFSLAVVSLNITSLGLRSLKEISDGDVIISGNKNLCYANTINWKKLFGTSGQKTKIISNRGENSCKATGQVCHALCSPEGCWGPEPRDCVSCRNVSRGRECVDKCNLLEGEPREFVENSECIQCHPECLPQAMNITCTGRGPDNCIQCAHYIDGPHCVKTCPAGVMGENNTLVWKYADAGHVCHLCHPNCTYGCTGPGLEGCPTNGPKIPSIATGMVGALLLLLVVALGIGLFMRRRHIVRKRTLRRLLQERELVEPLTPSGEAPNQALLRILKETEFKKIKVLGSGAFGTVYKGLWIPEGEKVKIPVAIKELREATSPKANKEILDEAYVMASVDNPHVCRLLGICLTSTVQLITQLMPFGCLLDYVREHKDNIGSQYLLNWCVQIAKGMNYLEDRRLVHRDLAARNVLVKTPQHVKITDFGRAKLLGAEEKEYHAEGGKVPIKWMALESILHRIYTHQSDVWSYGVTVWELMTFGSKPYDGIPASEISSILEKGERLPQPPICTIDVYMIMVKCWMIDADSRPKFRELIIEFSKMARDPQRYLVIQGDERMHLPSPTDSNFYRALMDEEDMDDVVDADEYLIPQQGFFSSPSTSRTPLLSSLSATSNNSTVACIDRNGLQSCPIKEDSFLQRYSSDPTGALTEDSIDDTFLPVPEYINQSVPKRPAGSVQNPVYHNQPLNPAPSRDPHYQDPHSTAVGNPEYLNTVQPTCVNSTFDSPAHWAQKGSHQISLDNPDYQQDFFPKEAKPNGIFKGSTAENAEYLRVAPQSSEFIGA

MUSK = molecular target: T6, MUSK (Homo sapiens, UniProt O15146)
T6 construct: purchased Eurofins DiscoverX KINOMEscan (scanTK)
T6 sequence (O15146 24-869): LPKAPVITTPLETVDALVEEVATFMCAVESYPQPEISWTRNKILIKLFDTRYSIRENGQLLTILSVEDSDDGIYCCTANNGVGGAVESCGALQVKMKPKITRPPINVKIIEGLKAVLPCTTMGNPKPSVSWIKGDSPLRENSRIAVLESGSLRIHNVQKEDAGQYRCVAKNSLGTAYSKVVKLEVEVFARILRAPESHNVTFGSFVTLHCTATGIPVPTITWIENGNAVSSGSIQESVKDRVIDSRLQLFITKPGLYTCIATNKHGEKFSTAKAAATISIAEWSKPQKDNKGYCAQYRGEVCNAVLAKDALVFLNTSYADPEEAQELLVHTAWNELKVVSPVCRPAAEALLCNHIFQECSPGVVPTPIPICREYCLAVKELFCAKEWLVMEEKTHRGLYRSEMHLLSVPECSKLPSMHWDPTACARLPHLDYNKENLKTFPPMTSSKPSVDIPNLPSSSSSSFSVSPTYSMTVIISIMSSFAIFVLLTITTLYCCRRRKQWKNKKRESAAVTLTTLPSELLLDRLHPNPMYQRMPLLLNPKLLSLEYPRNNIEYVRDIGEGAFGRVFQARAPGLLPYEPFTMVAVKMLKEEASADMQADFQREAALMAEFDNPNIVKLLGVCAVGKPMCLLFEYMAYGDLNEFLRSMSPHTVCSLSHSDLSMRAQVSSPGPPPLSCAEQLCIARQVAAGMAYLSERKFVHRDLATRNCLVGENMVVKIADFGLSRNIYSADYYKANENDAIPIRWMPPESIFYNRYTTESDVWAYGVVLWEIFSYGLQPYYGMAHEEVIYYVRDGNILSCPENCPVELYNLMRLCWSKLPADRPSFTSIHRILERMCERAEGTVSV

[1] = molecular target: T7, JAK3(JH1domain-catalytic) (Homo sapiens, UniProt P52333); conditions: for difference in %Control from compound Ib at 1 µM / remaining binding at 1 µM: JAK3(JH1domain-catalytic); for inhibition at 1 µM: ScanTK
T7 construct: JAK3(JH1domain-catalytic); purchased Eurofins DiscoverX KINOMEscan (scanTK)
T7 sequence (P52333 822-1124 limits assumed): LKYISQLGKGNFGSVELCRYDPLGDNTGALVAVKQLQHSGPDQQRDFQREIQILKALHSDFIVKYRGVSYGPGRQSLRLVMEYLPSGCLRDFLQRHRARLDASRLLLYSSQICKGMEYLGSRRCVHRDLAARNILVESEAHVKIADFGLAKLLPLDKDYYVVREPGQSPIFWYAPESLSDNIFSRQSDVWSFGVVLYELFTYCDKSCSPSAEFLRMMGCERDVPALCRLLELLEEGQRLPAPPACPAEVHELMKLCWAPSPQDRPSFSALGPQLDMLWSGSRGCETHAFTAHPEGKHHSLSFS

[2] = @1000nM, TRKC, read-out: %Control
[3] = TRKC, read-out: %Control @1000nM

T1 sequence (Q9UM73 19-1620): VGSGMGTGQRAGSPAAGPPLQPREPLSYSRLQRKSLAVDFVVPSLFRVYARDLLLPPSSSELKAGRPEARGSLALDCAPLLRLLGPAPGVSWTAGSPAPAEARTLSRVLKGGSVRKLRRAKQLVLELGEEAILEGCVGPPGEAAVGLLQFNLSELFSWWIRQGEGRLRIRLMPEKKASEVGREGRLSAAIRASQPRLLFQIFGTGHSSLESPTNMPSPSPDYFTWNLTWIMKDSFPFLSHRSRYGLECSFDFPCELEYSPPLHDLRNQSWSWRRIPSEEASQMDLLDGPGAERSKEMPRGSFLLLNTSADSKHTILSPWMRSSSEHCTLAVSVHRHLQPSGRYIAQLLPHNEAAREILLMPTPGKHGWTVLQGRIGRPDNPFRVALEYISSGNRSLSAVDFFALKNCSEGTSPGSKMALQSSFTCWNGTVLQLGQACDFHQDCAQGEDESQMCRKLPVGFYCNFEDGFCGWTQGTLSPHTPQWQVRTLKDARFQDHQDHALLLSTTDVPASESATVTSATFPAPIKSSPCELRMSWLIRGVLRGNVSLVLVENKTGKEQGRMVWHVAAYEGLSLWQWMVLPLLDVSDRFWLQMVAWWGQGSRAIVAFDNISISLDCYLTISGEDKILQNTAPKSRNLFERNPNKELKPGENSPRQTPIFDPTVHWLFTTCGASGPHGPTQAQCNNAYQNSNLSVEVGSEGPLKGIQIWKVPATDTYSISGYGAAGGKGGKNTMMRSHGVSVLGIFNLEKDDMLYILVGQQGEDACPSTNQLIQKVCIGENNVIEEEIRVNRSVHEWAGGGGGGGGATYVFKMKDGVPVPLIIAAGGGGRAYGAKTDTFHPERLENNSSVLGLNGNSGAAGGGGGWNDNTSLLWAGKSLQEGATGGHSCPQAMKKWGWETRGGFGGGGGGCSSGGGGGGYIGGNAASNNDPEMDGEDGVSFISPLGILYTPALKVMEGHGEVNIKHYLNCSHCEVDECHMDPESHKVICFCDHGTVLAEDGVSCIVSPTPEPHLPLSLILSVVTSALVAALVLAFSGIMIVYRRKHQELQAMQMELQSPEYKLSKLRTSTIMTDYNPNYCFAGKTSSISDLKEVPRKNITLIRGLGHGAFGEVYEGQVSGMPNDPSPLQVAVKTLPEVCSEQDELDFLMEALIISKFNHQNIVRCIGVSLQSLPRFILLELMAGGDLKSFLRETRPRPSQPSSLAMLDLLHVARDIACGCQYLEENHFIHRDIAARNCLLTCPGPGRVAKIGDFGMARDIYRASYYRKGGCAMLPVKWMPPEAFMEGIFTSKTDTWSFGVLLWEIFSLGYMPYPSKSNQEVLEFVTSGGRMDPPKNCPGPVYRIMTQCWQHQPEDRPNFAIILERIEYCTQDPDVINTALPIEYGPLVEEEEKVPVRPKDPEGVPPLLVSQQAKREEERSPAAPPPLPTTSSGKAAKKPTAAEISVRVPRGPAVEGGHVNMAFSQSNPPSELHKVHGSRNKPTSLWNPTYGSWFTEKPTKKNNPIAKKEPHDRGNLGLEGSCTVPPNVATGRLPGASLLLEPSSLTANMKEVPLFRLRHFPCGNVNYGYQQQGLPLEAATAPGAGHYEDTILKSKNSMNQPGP

| Compound | difference in %Control versus compound Ib at 1 µM (ALK; @1000nM) [%] | remaining binding at 1 µM (ALK; @1000nM, read-out: %Control) [%] | remaining binding at 1 µM (ALK; read-out: %Control @1000nM) [%] | remaining binding at 1 µM (SRMS; @1000nM, read-out: %Control) [%] | remaining binding at 1 µM (SRMS; read-out: %Control @1000nM) [%] | difference in %Control versus compound Ib at 1 µM (TRKC; @1000nM, TRKC) [%] | remaining binding at 1 µM (TRKC; [2]) [%] | remaining binding at 1 µM (TRKC; [3]) [%] | difference in %Control versus compound Ib at 1 µM (EPHB3; @1000nM) [%] | remaining binding at 1 µM (EPHB3; @1000nM, read-out: %Control) [%] | remaining binding at 1 µM (EPHB3; read-out: %Control @1000nM) [%] | %Control difference from compound Ib at 1 µM (EGFR(L858R); @1000nM) [%] | remaining binding at 1 µM (EGFR(L858R); @1000nM, read-out: %Control) [%] | remaining binding at 1 µM (EGFR(L858R); read-out: %Control @1000nM) [%] | remaining binding at 1 µM (MUSK; @1000nM, read-out: %Control) [%] | remaining binding at 1 µM (MUSK; read-out: %Control @1000nM) [%] | difference in %Control from compound Ib at 1 µM ([1]; @1000nM) [%] | remaining binding at 1 µM ([1]; @1000nM, read-out: %Control) [%] | remaining binding at 1 µM ([1]; read-out: %Control @1000nM) [%] | inhibition at 1 µM [1] [%] | also measured |
| --- | --- | --- | --- | --- | --- | --- | --- | --- | --- | --- | --- | --- | --- | --- | --- | --- | --- | --- | --- | --- | --- |
| CNC(=O)c1cnc(S(C)(=O)=O)nc1N1CCCC(n2nc(-c3ccc(Oc4ccccc4)cc3)c3c(N)ncnc32)C1 (stereo not shown) [Compound 8d, 4-(3-(4-Amino-3-(4-phenoxyphenyl)-1H-pyrazolo[3,4-d]pyrimidin-1-yl)piperidin-1-yl)-N-methyl-2-(methylsulfonyl)pyrimidine-5-carboxamide] | -11 | 83 | 83 | 6.5 | 6.5 | -3 | 92 | 92 | 2 | 100 | 100 | 39.1 | 41 | 41 | 98 | 98 | 67.5 | 73 | 73 | 27 | – |
| CCOC(=O)c1cnc(S(C)(=O)=O)nc1N1CCC[C@@H](n2nc(-c3ccc(Oc4ccccc4)cc3)c3c(N)ncnc32)C1 [Compound 8c, Ethyl (R)-4-(3-(4-Amino-3-(4-phenoxyphenyl)-1H-pyrazolo[3,4-d]pyrimidin-1-yl)piperidin-1-yl)-2-(methylsulfonyl)pyrimidine-5-carboxylate] | -25 | 69 | 69 | 32 | 32 | -18 | 77 | 77 | -20 | 78 | 78 | 64.1 | 66 | 66 | 73 | 73 | 94.5 | 100 | 100 | < 1 | – |
| Cc1cnc(S(C)(=O)=O)nc1N1CCCC(n2nc(-c3ccc(Oc4ccccc4)cc3)c3c(N)ncnc32)C1 (stereo not shown) [Compound 8a, 1-(1-(5-Methyl-2-(methylsulfonyl)pyrimidin-4-yl)piperidin-3-yl)-3-(4-phenoxyphenyl)-1H-pyrazolo[3,4-d]pyrimidin-4-amine] | -14 | 80 | 80 | 16 | 16 | -17 | 78 | 78 | 2 | 100 | 100 | 81.1 | 83 | 83 | 88 | 88 | 94.5 | 100 | 100 | < 1 | – |
| C=CC(=O)N1CCC[C@@H](n2nc(-c3ccc(Oc4ccccc4)cc3)c3c(N)ncnc32)C1 [Compound 1g, Ibrutinib, reference compound] | – | 94 | 94 | 0 | 0 | – | – | – | – | 98 | 98 | – | – | – | 95 | 95 | – | 5.5 | 5.5 | 95 | inhibition at 1 µM (SRMS; read-out: % inhibition, SRMS): > 99%; remaining binding at 1 µM (TRKC; read-out: %Control): 95%; remaining binding at 1 µM (TRKC; read-out: %Control @1000nM): 95% |
| COC(=O)c1cnc(S(C)(=O)=O)nc1N1CCCC(n2nc(-c3ccc(Oc4ccccc4)cc3)c3c(N)ncnc32)C1 (stereo not shown) [Compound 8b, Methyl 4-(3-(4-Amino-3-(4-phenoxyphenyl)-1H-pyrazolo[3,4-d]pyrimidin-1-yl)piperidin-1-yl)-2-(methylsulfonyl)pyrimidine-5-carboxylate] | 6 | 100 | 100 | 27 | 27 | -17 | 78 | 78 | -1 | 97 | 97 | 72.1 | 74 | 74 | 92 | 92 | 94.5 | 100 | 100 | < 1 | – |
